Assay results from patent publication US20220040255A1, “CHEMOTHERAPEUTIC REMODELING OF THE GUT MICROBIOME” (THE SCRIPPS RESEARCH INSTITUTE, priority 2018, published 2022).
Where a SMILES comes first, the peptide text is derived from it. [ ]: non-standard residue; d: D form.

Key:
[1] = Pharmacokinetics of c[wLwReQeR] via different routes of administration; format: in vivo, mice
Method: Pharmacokinetics. These experiments were carried out in part courtesy of Carol S. Ryan, Debra J. Search, Ricardo A. Garcia, and David A. Gordon at Bristol Myers Squibb (Hopewell, N.J., USA). Male Balb/C or C57BL/6 mice (20 g) were maintained on a chow diet. The cyclic peptide c[wLwReQeR] (SEQ ID NO:11) was dissolved in PBS containing 1% sucrose or 95% 50 mM acetate buffer containing 10% sucrose, 5% DMSO (pH=4), and sterile filtered through a 0.22-μm syringe filter before injection. Mice were fasted beginning 12 h before dosing, and continued the fast until after the 8-h time point blood draw was completed. Groups of three mice received a dose of the cyclic peptide via […] (5 mL/kg for subcutaneous and intraperitoneal, 10 mL/kg for oral gavage). Blood was drawn (30-60 μL) from the retro-orbital sinus into a heparinized capillary tube before dosing (0 min) and at different intervals from 30 min to 8 h after dosing. Plasma was isolated immediately from the whole blood by centrifugation at 5,000 rpm for 10 min at 4° C. Immediately after the plasma was isolated, 20 μL of plasma was acidified with 20 μL of 5% TFA to break peptide-protein interactions, and 40 μL of acetonitrile was then added. After vortexing for 30 s, the mixture was centrifuged at 13,000 rpm for 10 min at 4° C. The resultant supernatant was analyzed by using LC-MS SIM as described below.
LC-MS SIM quantitation of peptide concentration. Cyclic peptide concentrations were quantified by using reverse-phase HPLC coupled with mass spectrometry. The electrospray ionization mass spectrometry measurements were carried out in the positive ionization mode using a single quadrupole mass spectrometer (Hewlett Packard HP 1100 MSD series). 10 or 20 μL of sample were injected through a C8 reverse-phase column (Zorbax 300-SB, 4.6 mm×150 mm, 5 μm) using a flow rate of 1.5 mL/min and binary gradients of solvent A (99% H2O, 0.1% formic acid, 0.01% TFA) and solvent B (99% acetonitrile, 0.1% formic acid, 0.01% TFA). Mass detection was carried out in the selected ion monitoring (SIM) mode for the positive molecular ion, with the optimized fragmentor and capillary voltages of 180 V and 5 kV, respectively. The selected monitoring mass for cyclic peptide c[wLwReQeR] (SEQ ID NO:11) was 592.8 ([M+2H]^2+). For quantitative calibration, standard curves were established using mouse EDTA-anticoagulated plasma spiked with various concentrations of the peptide. The calibration curve was established by using linear fitting of the data, with correlation coefficient ≥0.98.

total bile acid = test: bulk (total) bile acid quantification; format: in vivo, LDLr−/− mice; settings: 2-wk treatment
Method: Bulk bile acid quantification. Total bile acids were measured enzymatically using a total bile acid assay kit (Cell Biolabs) following manufacturer's instruction. Feces were obtained between 0900-1100 am from non-fasted animals after a 2-wk treatment period. The extraction of bile acid from feces was performed as described in Yu et al., J. Biol. Chem. 275, 15482-15489, 2000. In brief, the feces from individual mice were collected, weighed, and agitated in 75% ethanol in an ultrasonic bath at 50° C. for 2 h. After centrifugation at 3,500 g for 10 min, the supernatant was transferred to a new tube and diluted with 25% PBS. The total bile acid level was then determined enzymatically using the kit. For plasma samples, the plasma was diluted 1:10 with 25% PBS prior to enzymatic bile acid measurement using the kit.

bile acids = bile acids in feces and plasma by targeted metabolomics; format: in vivo; settings: WD-fed LDLr−/− mice, 2-wk treatment
Method: Measurement of secondary bile acids. Feces were obtained between 0900-1100 am from non-fasted animals after a 2-wk treatment period. Bile acids were extracted from samples according to published procedures (Wegner et al., Anal. Bioanal. Chem. 409, 1231-1245, 2017). Briefly, fecal samples were lyophilized and homogenized. Five milligrams of fecal powder were extracted with 250 μl of methanol containing heavy internal standards. Fifty microliters of plasma were extracted with 150 μL of methanol containing heavy internal standards. After vortexing for 10 minutes and centrifuging (16,000×g, 4 C, 10 min), supernatants were transferred to glass vials for injection and analysis by LCMS. Bile acids were analyzed on a Dionex Ultimate 3000 LC system (Thermo) coupled to a TSQ Quantiva mass spectrometer (Thermo) fitted with a Kinetex C18 reversed phase column (2.6 μm, 150×2.1 mm i.d., Phenomenex). The following LC solvents were used: solution A, 0.1% formic acid and 20 mM ammonium acetate in water, solution B, acetonitrile/methanol (3/1, v/v) containing 0.1% formic acid and 20 mM ammonium acetate. The following reversed phase gradient was utilized: at a flow rate of 0.2 mL/min with a gradient consisting of 25-29% B in 1 min, 29-33% B in 14 min, 33-70% B in 15 min, up to 100% B in 1 min, 100% B for 9 min and re-equilibrated to 25% B for 10 min, for a total run time of 50 min. The injection volume for all samples was 10 μL, the column oven temperature was set to 50° C. and the autosampler kept at 4° C. MS analyses were performed using electrospray ionization in positive and negative ion modes, with spray voltages of 3.5 and −3 kV, respectively, ion transfer tube temperature of 325° C., and vaporizer temperature of 275° C. Multiple reaction monitoring (MRM) was performed by using mass transitions between specific parent ions into corresponding fragment ions for each analyte.

CC(C)C[C@@H]1NC(=O)[C@@H](Cc2c[nH]c3ccccc23)NC(=O)[C@H](CCCNC(=N)N)NC(=O)[C@@H](CCC(=O)O)NC(=O)[C@H](CCC(N)=O)NC(=O)[C@@H](CCC(=O)O)NC(=O)[C@H](CCCNC(=N)N)NC(=O)[C@@H](Cc2c[nH]c3ccccc23)NC1=O [c[wLwReQeR]] (cyclo([dW]L[dW]R[dE]Q[dE]R))
Tmax ([1]; male, C57BL/6, mouse, plasma, oral gavage, 15 mg/kg, C57B1/6): < 3 h
AUC(0-t) ([1]; male, C57BL/6, mouse, plasma, oral gavage, 15 mg/kg, C57B1/6, read-out: AUC 0-24 h): < 3 nM·h
Cmax ([1]; male, mouse, plasma, ip, 16-mg/kg i.p., BALB/c mice, read-out: peak plasma concentration): 13 µM
peptide in plasma after oral gavage ([1]; oral gavage, limit of detection=3 nM): not detectable
total bile acid in the feces, peptide-treated vs. control WD-fed mice (total bile acid; feces): two-fold higher
total bile acid in the plasma, peptide-treated vs. control WD-fed mice (total bile acid; plasma): three-fold lower
CA level (bile acids; feces): 440 ± 490 pmol/mg feces
DCA level (bile acids; feces): 4900 ± 2400 pmol/mg feces
HCA level (bile acids; feces): 1.6 ± 1.1 pmol/mg feces
LCA level (bile acids; feces): 400 ± 170 pmol/mg feces
T-CA level (bile acids; feces): 8.3 ± 3.3 pmol/mg feces
T-DCA level (bile acids; feces): 2.6 ± 1.2 pmol/mg feces
T-HCA level (bile acids; feces): 0.097 ± 0.03 pmol/mg feces
T-α-MCA level (bile acids; feces): 17 ± 8.7 pmol/mg feces
T-β-MCA level (bile acids; feces): 20 ± 11 pmol/mg feces
T-ω-MCA level (bile acids; feces): 3 ± 1.4 pmol/mg feces
UDCA level (bile acids; feces): 43 ± 16 pmol/mg feces
α-MCA level (bile acids; feces): 21 ± 8.9 pmol/mg feces
β-MCA level (bile acids; feces): 65 ± 12 pmol/mg feces
ω-MCA level (bile acids; feces): 170 ± 100 pmol/mg feces
CA level (bile acids; plasma): 6300 ± 8300 pmol/mL plasma
DCA level (bile acids; plasma): 2100 ± 2100 pmol/mL plasma
HCA level (bile acids; plasma): 1.0 ± 0.84 pmol/mL plasma
LCA level (bile acids; plasma): 100 ± 48 pmol/mL plasma
T-CA level (bile acids; plasma): 16000 ± 31000 pmol/mL plasma
T-DCA level (bile acids; plasma): 830 ± 1100 pmol/mL plasma
T-HCA level (bile acids; plasma): 62 ± 110 pmol/mL plasma
T-α-MCA level (bile acids; plasma): 1900 ± 3900 pmol/mL plasma
T-β-MCA level (bile acids; plasma): 9800 ± 22000 pmol/mL plasma
T-ω-MCA level (bile acids; plasma): 2400 ± 4900 pmol/mL plasma
UDCA level (bile acids; plasma): 120 ± 92 pmol/mL plasma
α-MCA level (bile acids; plasma): 10 ± 5.8 pmol/mL plasma
β-MCA level (bile acids; plasma): 76 ± 75 pmol/mL plasma
ω-MCA level (bile acids; plasma): 33 ± 11 pmol/mL plasma
